Measurements reported in patent US20240307409A1, “ARGININE METHYLTRANSFERASE INHIBITOR AND USE THEREOF” (Cytosinlab Therapeutics Co., Ltd., priority 2021, published 2024).

Legend:
Toledo cells = assay: Toledo cell proliferation inhibition assay; format: cell-based; conditions: Homo sapiens, Toledo, 144 h; six-day assay, CellTiter-Glo
Outline: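 Toledo cells seeded at 2000 cells/well in RPMI 1640 + 10% FBS and incubated with compound for six days at 37° C, 5% CO2. Viability was then read by CellTiter-Glo luminescence after 30 min orbital mixing.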

PRMT5 = PRMT5 (Homo sapiens, UniProt O14744); assay: PRMT panel selectivity test, PRMT5; format: biochemical
PRMT5, sequence (O14744 whole entry, species assumed): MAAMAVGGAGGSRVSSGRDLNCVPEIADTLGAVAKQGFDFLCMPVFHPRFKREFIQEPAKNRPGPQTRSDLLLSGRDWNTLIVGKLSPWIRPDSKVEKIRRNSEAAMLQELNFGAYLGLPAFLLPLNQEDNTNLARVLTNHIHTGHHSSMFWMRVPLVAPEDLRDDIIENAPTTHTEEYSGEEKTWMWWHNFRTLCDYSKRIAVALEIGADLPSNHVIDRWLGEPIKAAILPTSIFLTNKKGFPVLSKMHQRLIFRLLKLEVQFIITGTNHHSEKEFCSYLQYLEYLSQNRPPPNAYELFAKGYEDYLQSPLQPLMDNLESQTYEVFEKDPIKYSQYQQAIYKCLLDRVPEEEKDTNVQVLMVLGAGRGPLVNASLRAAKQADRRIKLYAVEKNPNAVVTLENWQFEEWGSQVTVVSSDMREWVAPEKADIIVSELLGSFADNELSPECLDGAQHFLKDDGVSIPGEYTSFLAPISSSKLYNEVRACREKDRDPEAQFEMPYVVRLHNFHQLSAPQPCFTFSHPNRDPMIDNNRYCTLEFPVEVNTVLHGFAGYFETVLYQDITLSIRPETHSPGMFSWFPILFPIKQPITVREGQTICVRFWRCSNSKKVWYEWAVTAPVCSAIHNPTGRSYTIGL
PRMT5, sequence (Q9BQA1 whole entry partner, species assumed): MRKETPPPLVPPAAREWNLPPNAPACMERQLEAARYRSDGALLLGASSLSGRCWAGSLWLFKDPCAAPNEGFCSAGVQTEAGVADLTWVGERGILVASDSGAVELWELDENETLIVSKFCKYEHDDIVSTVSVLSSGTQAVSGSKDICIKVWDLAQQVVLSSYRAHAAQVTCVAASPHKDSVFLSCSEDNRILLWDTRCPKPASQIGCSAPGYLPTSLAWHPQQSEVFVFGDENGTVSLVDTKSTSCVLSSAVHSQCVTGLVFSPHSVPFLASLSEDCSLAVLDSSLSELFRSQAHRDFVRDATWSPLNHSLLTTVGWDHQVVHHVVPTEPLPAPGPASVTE
Protocol: [The procedure below names another target; the source says it served here with some conditions changed.] PRMT1 enzyme activity test were performed in a buffer prepared on the same day 5 consisting of 10 mMTirs-HCl (pH=8.0), 0.01% Tween-20 and 1 mM DTT. The compounds were prepared to the highest inhibitor concentration ultimately required in the 100× reaction with 100% DMSO and then transferred to one well of a 384-well Echo plate (Echo-eligible 384-well polypropylene microplates 2.0, transparent, flat-bottomed) and sequentially diluted in the next well with a 3-fold dilution of 100% DMSO, and so on, with a total of 10 concentrations based on Precision. 100% DMSO was added to two empty wells to serve as control well without compound and control well without enzyme in the same 384-well Echo plate. 250 nL of compound was transferred from each well of the 384-well Echo plate to a 384-well assay plate (384-well polypropylene storage microplate) via the Echo 550 liquid processor. For wells with compounds and control well without compound, a mixture (15 uL) containing PRMT1 enzyme was added to the 384-well assay plate. For control wells without enzyme, the mixture containing the assay buffer (15 uL) was added instead. The compounds were allowed to incubate with PRMT1 for 15 minutes at room temperature, and then a mixture containing ^3H-SAM and peptide (10 uL) was added to start the reaction (final volume=25 uL). […] After 120 min of incubation, the assay was terminated by the addition of non-radiolabeled SAM (5 uL) to a final concentration of 125 uM, which diluted 3H-SAM to a level at which its incorporation into the peptide substrate was no longer detected. […] Plates were read on a microplate counter (MicroBeta2) to measure the amount of ^3H-labeled peptide bound to the surface of the detection plate, measured in counts per minute (cpm).
The raw data were copied from the Reader and the inhibition values were calculated in Excel by Equation (1), Equation (1): Inh %=(CPMmax−CPMcmpd)/(CPMmax−CPMmin)*100, wherein the Max signal was obtained from the enzyme-substrate interaction and the Min signal was obtained from the substrate. […]

| Compound | IC50 (Toledo cells) | IC50 (PRMT5) |
| --- | --- | --- |
| CNCCN(C)Cc1ccccc1C1CCN(c2ccccc2)CC1 [P023] | < 1000 nM | ≥ 10 µM |
| CNCCN(C)Cc1ncccc1N1CCc2ccccc2CC1 [P118] | < 1000 nM | ≥ 10 µM |
| CCOCC1(COCC)CCC(c2cccnc2CN(C)CCNC)CC1 [P207] | < 1000 nM | ≥ 10 µM |
